Laboratory results taken from PMC2692205 (Chembiochem : a European journal of chemical biology, 2008).

Biological target: SaDUF62 (Salinispora arenicola, UniProt A8M783)
Experiment: biochemical

SaDUF62, sequence (A8M783 whole entry): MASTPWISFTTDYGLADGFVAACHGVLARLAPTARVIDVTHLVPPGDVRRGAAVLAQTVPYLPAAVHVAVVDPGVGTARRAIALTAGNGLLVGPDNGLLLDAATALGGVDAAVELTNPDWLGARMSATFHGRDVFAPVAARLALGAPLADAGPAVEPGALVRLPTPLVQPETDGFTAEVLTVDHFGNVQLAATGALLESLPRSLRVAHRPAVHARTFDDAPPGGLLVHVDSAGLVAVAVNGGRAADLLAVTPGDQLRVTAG

## Cl [chloride]
  Ki: 1000 µM
